For test [1], the target named is T1, thrombin (Homo sapiens, UniProt P00734). Nature of the test: Kinetic properties of thrombin substrates (Km, Vmax, Kcat, Kcat/Km).
In test [2] the target is T1, thrombin. Description: Thrombin generation test / determination of the endogenous thrombin potential in defibrinated platelet-poor plasma. Type of test: biochemical. The conditions noted are these: for course of substrate conversion curve after termination of thrombin formation and inhibition: extinction at 405 nm; for reaction kinetics / substrate consumption in a thrombin generation test: compared with H-β-Ala-Gly-Arg-pNA and dextran-β-Ala-Gly-Arg-pNA. On the procedure:
The thrombin generation was started by addition of 30 μl of Innovin® (reagent comprising recombinant human tissue factor and a mixture of synthetic phospholipids; Dade Behring Marburg GmbH, Germany) and 15 μl of CaCl2 [250 mM]. Measurement was started simultaneously. The change in extinction was monitored for at least 20 minutes in a Behring coagulation system BCS® system (Dade Behring Marburg GmbH, Marburg, Germany) at a wavelength of λ=405 nm (see FIG. 2).
For comparison purposes, the determination of the endogenous thrombin potential was carried out in parallel using the uncoupled substrate H-β-Ala-Gly-Arg-pNA. The substrate solution used for this contained 1 mM H-β-Ala-Gly-Arg-pNA (see FIG. 1).

By Km is commonly meant the substrate concentration at which the rate is half of its maximum.

Non-standard residues stand in square brackets, D forms with d. Residues, ends and D or L forms follow the SMILES beside them. *: point of attachment. pNA = O=[N+]([O-])c1ccc(N*)cc1; βAla = NCCC(=O)O

On to `N=C(N)NCCC[C@H](NC(=O)CNC(=O)CCN)C(=O)Nc1ccc([N+](=O)[O-])cc1` [H-β-Ala-Gly-Arg-pNA 2AcOH] (H-[βAla]-Gly-Arg-pNA), for which the Km in test [1] (Michaelis constant, substrate affinity to thrombin) is 2200 µM. Also, the Vmax in test [1] (maximum reaction rate) worked out at 16 U. In test [1] (turnover number), this compound gave a Kcat of 17.4 s⁻¹. In test [2] (plasma sample), the “cleavage by α2-macroglobulin-bound thrombin” value was “cleavage of the small molecular weight peptide substrate by α2-macroglobulin-bound thrombin”; the “course of substrate conversion curve after termination of thrombin formation and inhibition” value is “changes to a uniform, steady and linear increase, instead of reaching a plateau phase”.
In the case of Dextran-D-CHG-Ala-Arg-pNA, the “reaction kinetics / substrate consumption in a thrombin generation test” value in test [2] was “substrate consumption rapidly occurs”.
Still for that read-out and setting: to Dextran-D-CHG-Gly-Arg-pNA belongs “substrate consumption rapidly occurs”.
In the case of Dextran-β-Ala-Gly-Arg-pNA, the “course of substrate conversion curve after termination of thrombin formation and inhibition” value in test [2] (plasma sample) is recorded as “reaches a plateau phase”.

(Values after patent publication US20080076183A1, “Polysaccharide-peptide conjugates for use as thrombin substrates” (Dade Behring Marburg GmbH, priority 2006, published 2008).)
